Experiment [1] has as its system TG-3. Briefly: Western blot of TG proteins in human scleral fibroblasts after muscarinic agents. The conditions noted are these: 0.01-10 μM for 5 days. The experiment is classed as cell-based.
The test system of experiment [2] is TG-5. The experiment is described as above. The experiment is classed as cell-based. The conditions noted are these: 0.01-10 μM for 5 days.
The test system of experiment [3] is TG-1. The experiment can be described thus: Western blot of TG proteins in mouse scleral fibroblasts after muscarinic agents. In kind it is cell-based. The note with it: 0.01-10 μM for 5 days. In general terms: A western blot detects proteins with antibodies after separation by electrophoresis.
Experiment [4] has as its system TG-3. Described as above. In kind it is cell-based. The note with it: 0.01-10 μM for 5 days.
Experiment [5] has as its target T1, hM1 (Homo sapiens, UniProt P11229).
T1 sequence (P11229 1-460): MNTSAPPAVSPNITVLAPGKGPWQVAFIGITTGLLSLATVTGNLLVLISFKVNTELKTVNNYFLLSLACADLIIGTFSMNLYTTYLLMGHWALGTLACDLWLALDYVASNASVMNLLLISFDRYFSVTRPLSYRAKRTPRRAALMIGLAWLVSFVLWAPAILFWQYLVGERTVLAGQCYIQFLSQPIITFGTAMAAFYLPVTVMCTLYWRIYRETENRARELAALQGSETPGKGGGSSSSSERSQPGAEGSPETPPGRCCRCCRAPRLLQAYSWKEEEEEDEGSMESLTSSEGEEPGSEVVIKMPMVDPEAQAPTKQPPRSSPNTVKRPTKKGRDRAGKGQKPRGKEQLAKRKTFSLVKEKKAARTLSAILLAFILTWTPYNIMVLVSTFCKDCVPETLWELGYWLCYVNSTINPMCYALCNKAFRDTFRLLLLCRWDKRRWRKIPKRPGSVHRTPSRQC
Briefly: himbacine binding to cloned muscarinic receptor subtypes. The conditions noted are these: cloned receptor subtype; data not shown.

The target of experiment [6] is T2, hM2 (Homo sapiens, UniProt P08172).
T2 sequence (P08172 1-466): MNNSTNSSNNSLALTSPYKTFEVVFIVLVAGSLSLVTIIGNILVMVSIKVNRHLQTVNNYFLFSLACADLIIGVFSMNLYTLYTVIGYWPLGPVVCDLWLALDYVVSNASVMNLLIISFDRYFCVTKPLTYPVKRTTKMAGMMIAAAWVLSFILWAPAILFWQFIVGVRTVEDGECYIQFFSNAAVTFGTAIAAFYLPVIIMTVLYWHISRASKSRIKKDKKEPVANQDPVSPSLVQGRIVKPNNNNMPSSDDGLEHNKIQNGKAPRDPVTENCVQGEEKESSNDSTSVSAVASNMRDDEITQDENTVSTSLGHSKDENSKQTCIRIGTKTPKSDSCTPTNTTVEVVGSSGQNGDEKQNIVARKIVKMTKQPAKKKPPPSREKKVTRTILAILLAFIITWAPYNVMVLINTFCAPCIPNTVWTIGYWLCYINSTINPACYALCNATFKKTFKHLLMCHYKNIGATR
The experiment can be described thus: biochemical. From the text: In some embodiments, the TG-2 inhibitors described herein can target the respective TG-2 protein and/or the expression of TGM-2. In other embodiments, the TG-2 inhibitors can further target at least one muscarinic receptor, for example M2 or M3 or inhibit the expression of at least one muscarinic receptor for example, M2 or M3.

The structures appear in SMILES notation.

In general, Kd refers to the equilibrium constant for the complex coming apart. A low value points to higher affinity.

In the case of `CN1[C@@H]2CC[C@H]1C[C@@H](OC(=O)C(CO)c1ccccc1)C2` (stereo partly drawn) [atropine], the TG-3 protein level entry in experiment [1] and in experiment [4] was “increased” each time. In experiment [2], the TG-5 protein level result is listed as “reduced”. Moreover, in experiment [3], the TG-1 protein level entry is on record as “reduced”.

As for `C[C@@H]1OC(=O)[C@H]2C[C@H]3CCCC[C@@H]3[C@@H](/C=C/[C@H]3CCC[C@H](C)N3C)[C@@H]12` [himbacine], the dissociation constant (Kd) in experiment [5] turned out to be 83 nM; in experiment [6] it was 4 nM.

The record behind these values is US20140050779A1, “[…]-2 INHIBITORS AND USES THEREOF” (SINGAPORE HEALTH SERVICES PTE. LTD., priority 2011, published 2014).
